Results as given in US8518859B2, “Method for increasing yield of staple food crop” (National University Corporation Shizuoka University, priority 2009, dated 2013).
Marks after values point to notes of the source that are not given here.

Columns and labels:
wheat (Nourin 61) = assay: Yield-increasing effect in wheat (Example 6); format: in vivo, wheat (genus Triticum); settings: 6 pots
Method: In 1/2000-a pots having crushed gravel in the bottom, 6 kg of a paddy-rice nursery soil was placed and, as a base fertilizer, 5-7-6 (N—P—K) was added in an amount of 4 g. The soil was sufficiently watered and 3 days later, 10 grains of wheat (Nourin 61) were sown in each pot. The wheat was cultured providing 300 ml of water once a week, and the seedlings were thinned 2 weeks after germination to leave 5 seedlings showing good growth. In the subsequent two weeks, a total of 6 pots were each treated once a week with AHX (5 μM), AHX (50 μM), AHX (1 mM), ICA (2 μM) or water only (control). Then, after culturing for 9 weeks providing 300 ml of just water once a week, the culture was continued for another 12 weeks by changing the amount of water to 500 ml once a week. It is noted here that, 2 weeks after the change was made in the amount of water, 0.75 g of ammonium sulfate was added to each pot as a panicle fertilizer. Further, the AHX (1 mM) treatment pots were subjected to an additional treatment with AHX (1 mM) for 2 weeks after the addition of the panicle fertilizer. The culture was carried out from Oct. 26, 2009 to May 12, 2010. After the completion of the culture, drying was performed for two weeks and the total wheat yield (g/5 plants) was measured.

rice (Nipponbare) [1] = assay: Yield-increasing effect in soil culture of rice 1 (Example 2); format: in vivo, rice (genus Oryza); settings: AHX 50 μM
Method: (§1) Soil culture was carried out for 97 days starting in July in the same manner as in Example 1, except that seedlings of rice (Nipponbare) were transplanted one by one to a soil (in 1/5000-a pot) which contains a fertilizer containing N (1,440 mg), P2O5 (12 mg), K2O (760 mg) and CaO (806 mg).
Water and nutrients were supplied once a day. As the medium used for the addition, the culture medium for the AHX (50 μM)-treated section and the culture medium for the control section were respectively used in the AHX (50 μM)-treated section and the control section. It is noted here that, unlike the case of hydroponic culture, the culture medium was not replaced.
The cereal crops obtained by the soil culture were dried for 2 weeks and the following items were measured in the same manner as in Example 1: brown rice mass; water content, carbon content and nitrogen content of brown rice; size and number of brown rice (per plant); leaf length; culm length; panicle length; number of panicles; tiller number; and mass of the above-ground part (n=7).

[2] = tested on: Rice (cultivar: "Nipponbare"); assay: Yield-increasing effect in hydroponic culture of rice (Example 1); format: in vivo, rice (genus Oryza)
Method: Rice (cultivar: “Nipponbare”) was used in the test. Seeds thereof were sown in a nursery box, and after 20 days of cultivation, the resulting rice seedlings were transplanted one by one to a pot (1/5000-a) and cultivated for 1 week with tap water.
After the cultivation with tap water, the thus obtained rice plants were cultured in a culture medium added with the AHX (50 μM), which was synthesized in the above, in an outdoor environment over a period of 97 days starting in July.
During the periods from the 8th day to the 32nd day and the period from the 73rd day to the 97th day after the transplantation, the culture was carried out in a medium having a half concentration of the undiluted culture medium, and during the period from the 33rd day to the 72nd day, the undiluted culture medium was used.
Water and nutrients were supplied once every 3 days. As the medium used for the addition, the culture medium for the AHX-treated section and the culture medium for the control section were respectively used in the AHX-treated section and the control section. It is noted here, however, that the culture medium was replaced once a week in the case of hydroponic culture.
The cereal crops obtained by the culture were dried for 2 weeks and the following items were measured: brown rice mass; water content, carbon content and nitrogen content of brown rice; size and number of brown rice (per plant); leaf length; culm length; panicle length; number of panicles; tiller number; and mass of the above-ground and underground parts. Here, the size of brown rice means the mass per grain determined from the brown rice mass (g/100 brown rice grains) and the number of brown rice refers to a value obtained by dividing the brown rice weight (g/plant) by the brown rice weight (g/100 brown rice grains) (number of plants n=6).

rice (Nipponbare) [3] = assay: Yield-increasing effect in soil culture of rice 2 (Example 3); format: in vivo, rice (genus Oryza); settings: for Brown rice weight (g/plant): soil culture Jun. 10 to Sep. 29, n=6; for Brown rice weight (g/100 brown rice grains) / Culm length (cm) / Mass of the above-ground part (g/plant) / Number of panicles (/plant) / Panicle length (cm): n=6; for Brown rice size: mass per grain
Method: as §1, with “from Jun. 10, 2009 to Sep. 29, 2009” for “for 97 days starting in July”, “(Nipponbare) obtained by a 30-day cultivation” for “(Nipponbare)”
Water and nutrients were supplied once a day. As the medium used for the addition, the culture medium for the AHX (5 μM)-treated section, the culture medium for the ICA (2 μM)-treated section and the culture medium the control section were respectively used in the AHX (5 μM)-treated section, the ICA (2 μM)-treated section and the control section. It is noted here that, unlike the case of hydroponic culture, the culture medium was not replaced.
(§2) The cereal crops obtained by the soil culture were dried for 2 weeks and the following items were measured: brown rice mass; water content of brown rice; size and number of brown rice (per plant); panicle length; culm length; number of panicles; and mass of the above-ground part (n=6).

[4] = tested on: seed potato (cultivar: "Danshaku"); assay: Yield-increasing effect in potato (Example 5); format: in vivo, potato (genus Solanum)
Method: A seed potato (cultivar: “Danshaku”) was cut into pieces of 30 g to 35 g in weight and they were each allowed to take roots in soil (in 1/2000-a pot) which contains a fertilizer containing N (960 mg), P2O5 (480 mg), K2O (640 mg) and MgO (320 mg). After 2-weeks of cultivation with tap water (after an above-ground part appeared), 2.74 mg (20 μmol) of AHX was dissolved in tap water and added to the pot every week. The Danshaku potato was cultured in an outdoor environment over a period of 12 weeks starting in January. The control section was treated with tap water only.
After 12 weeks, the Danshaku potato was harvested to measure the tuber mass (for the whole potato and a group consisting of potatoes having a weight of not less than 20 g that were extracted), the length and mass of the above-ground part and the leaf length (n=5).

[5] = tested on: Rice (cultivar: "Nipponbare"); assay: Yield-increasing effect in soil culture of rice 3, treatment before planting (Example 4); format: in vivo, rice (genus Oryza)
Method: Rice (cultivar: “Nipponbare”) was used in the test. Seeds thereof were sown in a nursery box, and after 16 days of cultivation, the resulting rice seedlings were transplanted to a pot (1/5000-a) and hydroponically cultured in a culture medium added with the AHX (1 mM) synthesized in the above for 2 weeks before settled-planting.
After the above-described hydroponic culture, the resulting seedlings were settled-planted in soil (in 1/5000-a pot) which contains a fertilizer containing N (1,440 mg), P2O5 (12 mg), K2O (760 mg) and CaO (806 mg). and soil-cultured from Jun. 10, 2009 to Sep. 29, 2009 in the same manner as in Example 1. During the soil culture period, no treatment with AHX was performed, and water and nutrients were supplied once per day. It is noted here that the culture medium was not replaced.
as §2

[6] = AHX 50 μM, hydroponic culture 97 days, n=6
[7] = 20 μmol AHX per pot every week, 12 weeks, n=5
[8] = 1 mM-treatment before planting, soil culture, n=6

SMILES: O=c1[nH]nnc2nc[nH]c12 [AHX, 2-azahypoxanthine]
- Seed Yield (g/5 plants) (wheat (Nourin 61); 5 μM, once a week for two weeks, soil pots): 44.66 g/5 plants
- Seed Yield (g/5 plants) (wheat (Nourin 61); 50 μM, once a week for two weeks, soil pots): 45.68 g/5 plants
- Seed Yield (g/5 plants) (wheat (Nourin 61); 1 mM, once a week for two weeks plus additional 2 weeks after panicle fertilizer): 46.79 g/5 plants
- Number of brown rice (/plant) (rice (Nipponbare) [1]; soil culture 97 days): 1864 /plant
- Brown rice weight (g/100 brown rice grains) (rice (Nipponbare) [1]; soil culture 97 days, n=7): 2.28 g/100 brown rice grains
- Brown rice weight (g/plant) (rice (Nipponbare) [1]; soil culture 97 days, n=7): 42.5 * g/plant
- Culm length (cm) (rice (Nipponbare) [1]; soil culture 97 days, n=7): 70.0 cm
- Leaf length (cm) (rice (Nipponbare) [1]; soil culture 97 days, n=7): 76.5 cm
- Mass of the above-ground part (g/plant) (rice (Nipponbare) [1]; soil culture 97 days, n=7): 122 *^ g/plant
- Number of panicles (/plant) (rice (Nipponbare) [1]; soil culture 97 days, n=7): 24.5 /plant
- Panicle length (cm) (rice (Nipponbare) [1]; soil culture 97 days, n=7): 21.1 cm
- Tiller number (/plant) (rice (Nipponbare) [1]; soil culture 97 days, n=7): 26.2 /plant
- Brown rice size (rice (Nipponbare) [1]; soil culture 97 days, mass per grain): 22.8 mg
- Increase of brown rice weight per plant (rice (Nipponbare) [1]; soil culture, vs control): about 10%
- Brown rice weight (g/plant) ([2]; AHX 50 μM in culture medium, hydroponic culture 97 days, n=6): 34.6 * g/plant
- Number of brown rice (/plant) ([2]; AHX 50 μM, hydroponic culture 97 days): 1544 /plant
- Brown rice weight (g/100 brown rice grains) [2, 6]: 2.24 * g/100 brown rice grains
- Culm length (cm) [2, 6]: 60.7 cm
- Leaf length (cm) [2, 6]: 72.2 * cm
- Mass of the above-ground part (g/plant) [2, 6]: 103 *^ g/plant
- Mass of underground part (g/plant) [2, 6]: 8.56 g/plant
- Number of panicles (/plant) [2, 6]: 30.8 * /plant
- Panicle length (cm) [2, 6]: 21.4 * cm
- Tiller number (/plant) [2, 6]: 25.1 /plant
- Brown rice size ([2]; AHX 50 μM, hydroponic culture 97 days, mass per grain): 22.4 mg
- Increase of brown rice weight per plant ([2]; AHX 50 μM, hydroponic culture, vs control): about 6%
- Number of brown rice (/plant) (rice (Nipponbare) [3]; 5 μM, soil culture): 2086 /plant
- Brown rice weight (g/plant) (rice (Nipponbare) [3]; 5 μM): 46.3 * g/plant
- Brown rice weight (g/100 brown rice grains) (rice (Nipponbare) [3]; 5 μM, soil culture): 2.22 g/100 brown rice grains
- Culm length (cm) (rice (Nipponbare) [3]; 5 μM, soil culture): 89.8 cm
- Mass of the above-ground part (g/plant) (rice (Nipponbare) [3]; 5 μM, soil culture): 150 g/plant
- Number of panicles (/plant) (rice (Nipponbare) [3]; 5 μM, soil culture): 30.8 /plant
- Panicle length (cm) (rice (Nipponbare) [3]; 5 μM, soil culture): 20.8 cm
- Increase of brown rice weight per plant (rice (Nipponbare) [3]; 5 μM, soil culture, vs control): about 25%
- Brown rice size (rice (Nipponbare) [3]; 5 μM, soil culture): 22.2 mg
- Leaf length (cm) [4, 7]: 7 cm
- Length of the above-ground part (cm) [4, 7]: 24 cm
- Mass of the above-ground part (g/plant) [4, 7]: 30 g/plant
- Total mass (g · potatoes of not less than 20 g/plant) [4, 7]: 85 * g · potatoes of not less than 20 g/plant
- Total mass (g/plant) of tubers ([4]; 2.74 mg (20 μmol) AHX per pot every week, 12 weeks, soil, n=5): 95 * g/plant
- Increase of total mass of potatoes ([4]; treated with AHX for 12 weeks, vs control): about 19%
- Increase of mass, only potatoes of not less than 20 g ([4]; treated with AHX for 12 weeks, vs control section): about 40%
- Number of brown rice (/plant) ([5]; 1 mM-treatment before planting, soil culture): 2027 /plant
- Brown rice weight (g/100 brown rice grains) [5, 8]: 2.15 g/100 brown rice grains
- Culm length (cm) [5, 8]: 86 cm
- Mass of the above-ground part (g/plant) [5, 8]: 154 *^ g/plant
- Number of panicles (/plant) [5, 8]: 33 /plant
- Panicle length (cm) [5, 8]: 21.1 cm
- Brown rice size ([5]; 1 mM-treatment before planting, soil culture, mass per grain): 21.5 mg
- Increase of brown rice weight per plant ([5]; 1 mM-treatment before planting, vs control): about 18%
- Brown rice weight (g/plant) ([5]; 1 mM-treatment for 2 weeks before planting, then soil culture without AHX, n=6): 43.6 * g/plant

SMILES: NC(=O)c1c[nH]cn1 [ICA, imidazole-4-carboxamide]
- Seed Yield (g/5 plants) (wheat (Nourin 61); 2 μM, once a week for two weeks, soil pots): 47.99 g/5 plants
- Number of brown rice (/plant) (rice (Nipponbare) [3]; 2 μM, soil culture): 2104 /plant
- Brown rice weight (g/plant) (rice (Nipponbare) [3]; 2 μM): 46.5 * g/plant
- Brown rice weight (g/100 brown rice grains) (rice (Nipponbare) [3]; 2 μM, soil culture): 2.21 g/100 brown rice grains
- Culm length (cm) (rice (Nipponbare) [3]; 2 μM, soil culture): 87.2 cm
- Mass of the above-ground part (g/plant) (rice (Nipponbare) [3]; 2 μM, soil culture): 152 g/plant
- Number of panicles (/plant) (rice (Nipponbare) [3]; 2 μM, soil culture): 30.5 /plant
- Panicle length (cm) (rice (Nipponbare) [3]; 2 μM, soil culture): 22.1 cm
- Increase of grain weight per plant (rice (Nipponbare) [3]; 2 μM, soil culture, vs control): about 26%
- Brown rice size (rice (Nipponbare) [3]; 2 μM, soil culture): 22.1 mg
